Experimental data taken from patent US8012956B2, “Tropane compounds” (Exelixis, Inc., priority 2007, dated 2011).

Biological target: HSP90 (Homo sapiens, UniProt P07900)
Test: HSP90 inhibition (HSP90 IC50)
Assay type: biochemical

In the case of CCC(CC)Nc1cc(C(=O)N[C@H]2C[C@H]3CC[C@@H](C2)N3c2ccc(C(=O)C3CC3)cn2)c(F)cc1C(N)=O [N-{8-[5-(cyclopropylcarbonyl)pyridin-2-yl]-8-azabicyclo[3.2.1]oct-3-endo-yl}-5-[(1-ethylpropyl)amino]-2-fluorobenzene-1,4-dicarboxamide], the IC50 is reported as < 500 nM.

For Cc1cc(C(N)=O)c(NC(C)C(F)F)cc1C(=O)N[C@H]1C[C@H]2CC[C@@H](C1)N2c1ccc(C(=O)C2CC2)cn1 (stereo partly drawn) [N-{8-[5-(cyclopropylcarbonyl)pyridin-2-yl]-8-azabicyclo[3.2.1]oct-3-endo-yl}-5-[(2,2-difluoro-1-methylethyl)amino]-2-methylbenzene-1,4-dicarboxamide], the IC50 was < 500 nM.

In the case of Cc1cc(C(N)=O)c(NC(C2CC2)C2CC2)cc1C(=O)NC1CC2CCC(C1)N2c1ccc(C(=O)C2CC2)cn1 (stereo not drawn) [N-{8-[5-(cyclopropylcarbonyl)pyridin-2-yl]-8-azabicyclo[3.2.1]oct-3-endo-yl}-5-[(dicyclopropylmethyl)amino]-2-methylbenzene-1,4-dicarboxamide], the IC50 is reported as < 500 nM.

With CCc1cc(C(=O)N[C@H]2C[C@H]3CC[C@@H](C2)N3c2ccc(C(=O)C3CC3)cn2)c(C)cc1C(N)=O [N-{8-[5-(cyclopropylcarbonyl)pyridin-2-yl]-8-azabicyclo[3.2.1]oct-3-endo-yl}-5-ethyl-2-methylbenzene-1,4-dicarboxamide] the IC50 was < 500 nM.

In the case of Cc1cc(C(N)=O)c(NC(CF)CF)cc1C(=O)N[C@H]1C[C@H]2CC[C@@H](C1)N2c1ccc(C(=O)C2CC2)cn1 [N-{8-[5-(cyclopropylcarbonyl)pyridin-2-yl]-8-azabicyclo[3.2.1]oct-3-endo-yl}-5-{[2-fluoro-1-(fluoromethyl)ethyl]amino}-2-methylbenzene-1,4-dicarboxamide], the IC50 is reported as < 500 nM.

With Cc1cc(C(N)=O)c(N[C@H](C)C(C)C)cc1C(=O)NC1CC2CCC(C1)N2c1ccc(C(=O)C2CC2)cn1 (stereo partly drawn) [N-{8-[5-(cyclopropylcarbonyl)pyridin-2-yl]-8-azabicyclo[3.2.1]oct-3-endo-yl}-5-{[(1R)-1,2-dimethylpropyl]amino}-2-methylbenzene-1,4-dicarboxamide] the IC50 was < 500 nM.

CC[C@@H](C)Nc1cc(C(=O)NC2CC3CCC(C2)N3c2ccc(C(=O)C3CC3)cn2)c(C(F)(F)F)cc1C(N)=O (stereo partly drawn) [N-{8-[5-(cyclopropylcarbonyl)pyridin-2-yl]-8-azabicyclo[3.2.1]oct-3-endo-yl}-5-{[(1R)-1-methylpropyl]amino}-2-(trifluoromethyl)benzene-1,4-dicarboxamide] was tested, and the IC50 was < 500 nM.

For NC(=O)c1ccc(C(=O)N[C@H]2C[C@H]3CC[C@@H](C2)N3c2ccc(C(=O)C3CC3)cn2)s1 [N-{8-[5-(cyclopropylcarbonyl)pyridin-2-yl]-8-azabicyclo[3.2.1]oct-3-endo-yl}thiophene-2.5-dicarboxamide], the IC50 was 1000 to 2000 nM.

For Cc1cc(C(N)=O)c(NCC(C)C)cc1C(=O)N[C@H]1C[C@H]2CC[C@@H](C1)N2c1ccc(C(=O)C2CC2)cn1 [N-{8-[5-(cyclopropylcarbonyl)pyridine-2-yl]-8-azabicyclo[3.2.1]oct-3-endo-yl}-2-methyl-5-[(2-methylpropyl)amino]benzene-1,4-dicarboxamide], the IC50 was < 500 nM.

In the case of CCC(Nc1cc(C(=O)N[C@H]2C[C@H]3CC[C@@H](C2)N3c2ccc(C(=O)C3CC3)cn2)c(C)cc1C(N)=O)C(F)(F)F (stereo partly drawn) [N-{8-[5-(cyclopropylcarbonyl)pyridine-2-yl]-8-azabicyclo[3.2.1]oct-3-endo-yl}-2-methyl-5-{[1-(trifluoromethyl)propyl]amino}benzene-1,4-dicarboxamide], the IC50 is reported as < 500 nM.

With CC[C@H](C)Nc1cc(C(=O)NC2CC3CCC(C2)N3c2ccc(C(=O)C3CC3)cn2)c(C)cc1C(N)=O (stereo partly drawn) [N-{8-[5-(cyclopropylcarbonyl)pyridine-2-yl]-8-azabicyclo[3.2.1]oct-3-endo-yl}-2-methyl-5-{[(1S)-1-methylpropyl]amino}benzene-1,4-dicarboxamide] the IC50 was < 500 nM.

For CCC(CC)Nc1cc(C(=O)N[C@H]2C[C@H]3CC[C@@H](C2)N3c2ccc(C(=O)C3CC3)cn2)c(C(F)(F)F)cc1C(N)=O [N-{8-[5-(cyclopropylcarbonyl)pyridine-2-yl]-8-azabicyclo[3.2.1]oct-3-endo-yl}-5-[(1-ethylpropyl)amino]-2-(trifluoromethyl)benzene-1,4-dicarboxamide], the IC50 was < 500 nM.

For COc1cccc(C(=O)N[C@H]2C[C@H]3CC[C@@H](C2)N3c2ccc(C(=O)NN)cn2)c1C [N-{8-[5-(hydrazinocarbonyl)pyridin-2-yl]-8-azabicyclo[3.2.1]oct-3-endo-yl}-2-methyl-3-(methyloxy)benzamide], the IC50 was 2000 to 10000 nM.

CCN1CCC[C@@H](NC(=O)c2ccc(N3C4CCC3CC(NC(=O)c3cc(C)c(C(N)=O)cc3C)C4)nc2)C1 (stereo partly drawn) [N-{8-[5-({[(3R)-1-ethylpiperidin-3-yl]amino}carbonyl)pyridin-2-yl]-8-azabicyclo[3.2.1]oct-3-endo-yl}-2,5-dimethylbenzene-1,4-dicarboxamide] was tested, and the IC50 was < 500 nM.

In the case of CCN1CC[C@@H](NC(=O)c2ccc(N3C4CCC3CC(NC(=O)c3cc(C)c(C(N)=O)cc3C)C4)nc2)C1 (stereo partly drawn) [N-{8-[5-({[(3R)-1-ethylpyrrolidin-3-yl]amino}carbonyl)pyridin-2-yl]-8-azabicyclo[3.2.1]oct-3-endo-yl}-2,5-dimethylbenzene-1,4-dicarboxamide], the IC50 is reported as < 500 nM.

With CCN1CCC[C@H](NC(=O)c2ccc(N3C4CCC3CC(NC(=O)c3cc(C)c(C(N)=O)cc3C)C4)nc2)C1 (stereo partly drawn) [N-{8-[5-({[(3S)-1-ethylpiperidin-3-yl]amino}carbonyl)pyridin-2-yl]-8-azabicyclo[3.2.1]oct-3-endo-yl}-2 5-dimethylbenzene-1,4-dicarboxamide] the IC50 was 500 to 999 nM.

With CCN1CC[C@H](NC(=O)c2ccc(N3C4CCC3CC(NC(=O)c3cc(C)c(C(N)=O)cc3C)C4)nc2)C1 (stereo partly drawn) [N-{8-[5-({[(3S)-1-ethylpyrrolidin-3-yl]amino}carbonyl)pyridin-2-yl]-8-azabicyclo[3.2.1]oct-3-endo-yl}-2,5-dimethylbenzene-1,4-dicarboxamide] the IC50 was < 500 nM.

For Cc1cnc(CNC(=O)c2ccc(N3[C@@H]4CC[C@H]3C[C@@H](NC(=O)c3ccc(C(N)=O)cc3)C4)nc2)cn1 [N-{8-[5-({[(5-methylpyrazin-2-yl)methyl]amino}carbonyl)pyridin-2-yl]-8-azabicyclo[3.2.1]oct-3-endo-yl}benzene-1,4-dicarboxamide], the IC50 was 1000 to 2000 nM.

For COc1ccc([C@H](C)NC(=O)c2ccc(N3C4CCC3CC(NC(=O)c3cccc(OC)c3C)C4)nc2)c(F)c1 (stereo partly drawn) [N-{(1S)-1-[2-fluoro-4-(methyloxy)phenyl]ethyl}-6-[3-endo-({[2-methyl-3-(methyloxy)phenyl]carbonyl}amino)-8-azabicyclo[3.2.1]oct-8-yl]pyridine-3-carboxamide], the IC50 was < 500 nM.

For CCNC(=O)[C@@H](NC(=O)c1ccc(N2C3CCC2CC(NC(=O)c2cccc(OC)c2C)C3)nc1)c1ccc(OC)cc1 (stereo partly drawn) [N-{(1S)-2-(ethylamino)-1-{4-(methyloxy)phenyl]-2-oxoethyl}-6-[3-endo-({[2-methyl-3-(methyloxy)phenyl]carbonyl}amino)-8-azabicyclo[3.2.1]oct-8-yl]pyridine-3-carboxamide], the IC50 was 500 to 999 nM.

CNC(=O)[C@@H](NC(=O)c1ccc(N2C3CCC2CC(NC(=O)c2cccc(OC)c2C)C3)nc1)c1ccc(OC)cc1 (stereo partly drawn) [N-{(1S)-2-(methylamino)-1-[4-(methyloxy)phenyl]-2-oxoethyl}-6-[3-endo-({[2-methyl-3-(methyloxy)phenyl]carbonyl}amino)-8-azabicyclo[3.2.1]oct-8-yl]pyridine-3-carboxamide] was tested, and the IC50 was 500 to 999 nM.

Work on COc1ccc([C@H](NC(=O)c2ccc(N3C4CCC3CC(NC(=O)c3cccc(OC)c3C)C4)nc2)C(N)=O)cc1 (stereo partly drawn) [N-{(1S)-2-amino-1-[4-(methyloxy)phenyl]-2-oxoethyl}-6-[3-endo-({[2-methyl-3-(methyloxy)phenyl]carbonyl}amino)-8-azabicyclo[3.2.1]oct-8-yl]pyridine-3-carboxamide] yielded an IC50 of 500 to 999 nM.

Work on COc1cccc(C(=O)N[C@H]2C[C@H]3CC[C@@H](C2)N3c2ccc(C(=O)NCc3cccc(OC)c3OC)cn2)c1C [N-{[2,3-bis(methyloxy)phenyl]methyl}-6-[3-endo-({[2-methyl-3-(methyloxy)phenyl]carbonyl}amino)-8-azabicyclo[3.2.1]oct-8-yl]pyridine-3-carboxamide] yielded an IC50 of 2000 to 10000 nM.

COc1ccc(CNC(=O)c2ccc(N3[C@@H]4CC[C@H]3C[C@@H](NC(=O)c3cccc(OC)c3C)C4)nc2)c(OC)c1 [N-{[2,4-bis(methyloxy)phenyl]methyl}-6-[3-endo-({[2-methyl-3-(methyloxy)phenyl]carbonyl}amino)-8-azabicyclo[3.2.1]oct-8-yl]pyridine-3-carboxamide] showed an IC50 of 500 to 999 nM.

For COc1cc(F)c(CNC(=O)c2ccc(N3[C@@H]4CC[C@H]3C[C@@H](NC(=O)c3cccc(OC)c3C)C4)nc2)c(F)c1 [N-{[2,6-difluoro-4-(methyloxy)phenyl]methyl}-6-[3-endo-({[2-methyl-3-(methyloxy)phenyl]carbonyl}amino)-8-azabicyclo[3.2.1]oct-8-yl]pyridine-3-carboxamide], the IC50 was < 500 nM.

In the case of CCOc1ccccc1CNC(=O)c1ccc(N2[C@@H]3CC[C@H]2C[C@@H](NC(=O)c2cccc(OC)c2C)C3)nc1 [N-{[2-(ethyloxy)phenyl]methyl}-6-[3-endo-({[2-methyl-3-(methyloxy)phenyl]carbonyl}amino)-8-azabicyclo[3.2.1]oct-8-yl]pyridine-3-carboxamide], the IC50 is reported as 500 to 999 nM.

In the case of COc1ccc(CNC(=O)c2ccc(N3[C@@H]4CC[C@H]3C[C@@H](NC(=O)c3cccc(OC)c3C)C4)nc2)c(Cl)c1 [N-{[2-chloro-4-(methyloxy)phenyl]methyl}-6-[3-endo-({[2-methyl-3-(methyloxy)phenyl]carbonyl}amino)-8-azabicyclo[3.2.1]oct-8-yl]pyridine-3-carboxamide], the IC50 is reported as < 500 nM.

With COc1ccc(CNC(=O)c2ccc(N3[C@@H]4CC[C@H]3C[C@@H](NC(=O)c3cccc(OC)c3C)C4)nc2)c(F)c1 [N-{[2-fluoro-4-(methyloxy)phenyl]methyl}-6-[3-endo-({[2-methyl-3-(methyloxy)phenyl]carbonyl}amino)-8-azabicyclo[3.2.1]oct-8-yl]pyridine-3-carboxamide] the IC50 was < 500 nM.
